Reference: patent US20120178738A1, “DIBENZO [B,F] [1,4]OXAZAPINE COMPOUNDS” (ARYX THERAPEUTICS, INC., priority 2007, published 2012)

How the values were obtained:
5-HT2A receptor = target: T1, 5-HT2A receptor (Rattus norvegicus, UniProt P14842); assay: cell-based; settings: read-out: 5HT2A (pKb) (converted)
T1 construct: Eight strips of tissue (0.5 cm long) were cut. and were mounted in 10 ml organ baths; tissue Charles River Laboratories; host or cells: rat aorta strips, endothelium removed
Description: The rat aorta (approximately 7 cm) was isolated and removed from the animal (male Sprague Dawley rat, Charles River Laboratories, Hollister, Calif.). The endothelium was removed mechanically. Eight strips of tissue (0.5 cm long) were cut. and were mounted in 10 ml organ baths kept at 37° C. with Krebs solution (composition in mM: NaCl (118.2), KCl (4.6), CaCl2 (2.5), MgSO4 (1.2), KH2PO4 (1.2), NaHCO3 (24.8) and dextrose (10.0)) that was constantly aerated with carbogen gas (95% O2/5% CO2) to obtain a pH of 7.4. The tissues were subjected to a resting tension of 2 g (3 times, 15 minutes apart, equilibrated in Krebs solution). The tissues were then washed 15 minutes later. Ten minutes later, the tissues were then exposed to 0.1 μM phenylephrine. At the maximal effect, 1 μM acetylcholine was added to confirm the absence of endothelium and then washed twice, 2 minutes apart.
Contractions were recorded as changes in tension from baseline and expressed as a percentage of the maximum response of the agonist (5-HT) concentration-effect curve. Agonist concentration-response curves were fitted using a nonlinear iterative fitting program (GraphPad Prism) using the relationship of Parker and Waud (Parker, R. B. and Waud, D. R. (1971). Pharmacological estimation of drug-receptor dissociation constants. Statistical evaluation. I. Agonists. J. Pharmacol. Exp. Ther., 177, 1-12). Agonist potency was expressed as EC50 (molar concentration of agonist producing 50% of the maximum response). Concentration-ratios (CRs) were determined from EC50 values in the presence and absence of antagonist and antagonist affinity estimates (pKB and pA2 values) were determined. All data are expressed as mean±s.e. mean.

[1] = target: T2, human D2s dopamine receptors (Homo sapiens, UniProt P14416); assay: hD2S receptor radioligand binding ([3H]spiperone); settings: pKi reported on a scale of 1 through 5
T2 construct: expressed in transfected cells; host or cells: Chinese hamster ovary cells (membranes)
T2 sequence (P14416 1-414 isoform P14416-2): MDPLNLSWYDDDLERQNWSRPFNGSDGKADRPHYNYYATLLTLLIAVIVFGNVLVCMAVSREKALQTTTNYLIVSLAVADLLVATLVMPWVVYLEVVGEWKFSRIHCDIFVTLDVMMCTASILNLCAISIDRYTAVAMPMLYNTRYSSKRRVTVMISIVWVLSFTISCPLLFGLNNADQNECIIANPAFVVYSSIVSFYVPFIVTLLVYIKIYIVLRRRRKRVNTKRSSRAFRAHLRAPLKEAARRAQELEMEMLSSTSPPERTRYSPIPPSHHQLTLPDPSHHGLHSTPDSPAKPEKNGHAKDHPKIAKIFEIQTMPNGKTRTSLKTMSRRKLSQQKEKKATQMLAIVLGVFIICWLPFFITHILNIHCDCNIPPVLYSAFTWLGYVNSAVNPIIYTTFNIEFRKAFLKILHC
Description: (§1) Consistent with standard competition radioligand binding assays, the methodology was based on displacement of radioligand from tissues (or cell lines) bearing the receptor of interest (Cheng, Y. and Prusoff, W. H. (1973). Biochem. Pharmacol. 22, 3099-3108). The measurements were based on the binding of a single concentration of radiolabeled ligand in the presence of various concentrations of unlabeled ligand.
(§2) Tissues (or cellular plasma membrane fractions) were incubated in the presence of radioligand at equilibrium and in the presence of a range of concentrations of the test compounds (which were non-radiolabeled), and the displaced radioligand was separated from the membranes by filtration. Nonspecific binding was assessed by measuring displacement of the radioligand in the presence of a compound known to block binding of the radioligand to the receptor. Finally, the concentration-response relationship for radioligand displacement (corrected for non-specific binding) was used to assess binding of the test compound to the receptor.

[2] = target: T3, human D2L dopamine receptors (Homo sapiens, UniProt P14416); assay: hD2L receptor radioligand binding ([3H]spiperone); settings: pKi reported on a scale of 1 through 5; read-out: D2L (pKi) (converted)
T3 construct: expressed in transfected cells; host or cells: insect Sf9 cells (membranes)
T3 sequence (P14416 whole entry): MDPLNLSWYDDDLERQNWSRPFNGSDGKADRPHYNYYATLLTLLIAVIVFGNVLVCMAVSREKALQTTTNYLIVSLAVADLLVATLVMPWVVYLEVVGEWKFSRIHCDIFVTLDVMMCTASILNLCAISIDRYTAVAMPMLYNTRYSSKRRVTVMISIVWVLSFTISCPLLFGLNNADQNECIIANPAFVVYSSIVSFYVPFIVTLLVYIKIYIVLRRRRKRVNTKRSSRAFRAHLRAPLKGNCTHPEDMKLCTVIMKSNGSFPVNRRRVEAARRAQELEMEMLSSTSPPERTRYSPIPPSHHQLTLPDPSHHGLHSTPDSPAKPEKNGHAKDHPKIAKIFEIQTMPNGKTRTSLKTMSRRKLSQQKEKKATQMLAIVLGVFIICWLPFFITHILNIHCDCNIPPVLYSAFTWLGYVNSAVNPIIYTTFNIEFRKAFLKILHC
Description: as §1, §2

human 5HT1A receptors = target: T4, human 5HT1A receptors (Homo sapiens, UniProt P08908); assay: h5-HT1A receptor radioligand binding ([3H]8OH-DPAT); settings: pKi reported on a scale of 1 through 5
T4 construct: expressed in transfected cells; host or cells: Chinese hamster ovary cells (membranes)
T4 sequence (P08908 1-422): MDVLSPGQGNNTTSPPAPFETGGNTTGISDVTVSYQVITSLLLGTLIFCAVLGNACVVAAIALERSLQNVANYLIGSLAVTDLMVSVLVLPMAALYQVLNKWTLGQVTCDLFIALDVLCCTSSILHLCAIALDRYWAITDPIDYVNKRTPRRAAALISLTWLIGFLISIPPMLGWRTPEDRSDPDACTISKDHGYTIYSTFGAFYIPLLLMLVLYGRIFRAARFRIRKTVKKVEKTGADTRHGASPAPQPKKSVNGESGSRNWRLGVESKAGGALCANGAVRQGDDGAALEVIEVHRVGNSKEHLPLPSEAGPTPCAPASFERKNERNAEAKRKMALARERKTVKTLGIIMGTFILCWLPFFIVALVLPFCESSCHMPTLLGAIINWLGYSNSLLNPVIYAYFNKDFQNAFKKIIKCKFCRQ
Description: as §1, §2

human 5HT2C receptors = target: T5, human 5HT2C receptors (Homo sapiens, UniProt P28335); assay: h5-HT2C receptor radioligand binding ([3H]Mesulergine); settings: pKi reported on a scale of 1 through 5
T5 construct: expressed in transfected cells; host or cells: human embryo kidney cells (membranes)
T5 sequence (P28335 33-458): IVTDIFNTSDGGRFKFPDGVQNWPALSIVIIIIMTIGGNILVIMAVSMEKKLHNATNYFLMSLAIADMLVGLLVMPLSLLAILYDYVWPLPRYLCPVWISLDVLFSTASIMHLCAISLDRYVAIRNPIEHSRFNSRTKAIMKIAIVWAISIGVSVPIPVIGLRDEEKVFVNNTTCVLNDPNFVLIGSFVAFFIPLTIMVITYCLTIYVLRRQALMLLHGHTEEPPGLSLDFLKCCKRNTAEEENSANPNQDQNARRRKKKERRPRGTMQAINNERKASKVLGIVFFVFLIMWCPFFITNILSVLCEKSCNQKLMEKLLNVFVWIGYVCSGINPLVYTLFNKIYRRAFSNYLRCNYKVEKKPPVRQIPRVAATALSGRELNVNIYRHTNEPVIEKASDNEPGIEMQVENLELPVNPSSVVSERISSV
Description: The measurements were based on the binding of a single concentration of radiolabeled ligand in the presence of various concentrations of unlabeled ligand.
as §2

human M3 receptors = target: T6, human M3 receptors (Homo sapiens, UniProt P20309); assay: hM3 receptor radioligand binding ([3H]NMS); settings: pKi reported on a scale of 1 through 5; read-out: M3 (pKi) (converted)
T6 construct: expressed in transfected cells; host or cells: Chinese hamster ovary cells (membranes)
T6 sequence (P20309 whole entry): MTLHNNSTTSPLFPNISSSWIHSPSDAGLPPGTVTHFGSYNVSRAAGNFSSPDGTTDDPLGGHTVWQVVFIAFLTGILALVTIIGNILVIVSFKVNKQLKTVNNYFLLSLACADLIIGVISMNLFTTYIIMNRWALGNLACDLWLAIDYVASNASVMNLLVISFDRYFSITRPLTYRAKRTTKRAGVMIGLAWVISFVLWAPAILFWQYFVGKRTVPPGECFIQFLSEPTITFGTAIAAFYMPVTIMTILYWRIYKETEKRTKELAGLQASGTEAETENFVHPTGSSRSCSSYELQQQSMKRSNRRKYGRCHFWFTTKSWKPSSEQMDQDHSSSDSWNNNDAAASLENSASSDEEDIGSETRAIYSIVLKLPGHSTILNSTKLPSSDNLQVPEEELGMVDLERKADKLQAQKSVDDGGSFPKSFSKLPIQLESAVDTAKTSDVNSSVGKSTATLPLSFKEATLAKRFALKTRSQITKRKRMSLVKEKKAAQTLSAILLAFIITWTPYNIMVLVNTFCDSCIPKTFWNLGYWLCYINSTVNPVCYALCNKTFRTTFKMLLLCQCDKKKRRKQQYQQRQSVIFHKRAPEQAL
Description: as §1, §2

human H1 receptors = target: T7, human H1 receptors (Homo sapiens, UniProt P35367); assay: hH1 receptor radioligand binding ([3H]Pyrilamine); settings: pKi reported on a scale of 1 through 5
T7 construct: expressed in transfected cells; host or cells: Chinese hamster ovary cells (membranes)
T7 sequence (P35367 whole entry): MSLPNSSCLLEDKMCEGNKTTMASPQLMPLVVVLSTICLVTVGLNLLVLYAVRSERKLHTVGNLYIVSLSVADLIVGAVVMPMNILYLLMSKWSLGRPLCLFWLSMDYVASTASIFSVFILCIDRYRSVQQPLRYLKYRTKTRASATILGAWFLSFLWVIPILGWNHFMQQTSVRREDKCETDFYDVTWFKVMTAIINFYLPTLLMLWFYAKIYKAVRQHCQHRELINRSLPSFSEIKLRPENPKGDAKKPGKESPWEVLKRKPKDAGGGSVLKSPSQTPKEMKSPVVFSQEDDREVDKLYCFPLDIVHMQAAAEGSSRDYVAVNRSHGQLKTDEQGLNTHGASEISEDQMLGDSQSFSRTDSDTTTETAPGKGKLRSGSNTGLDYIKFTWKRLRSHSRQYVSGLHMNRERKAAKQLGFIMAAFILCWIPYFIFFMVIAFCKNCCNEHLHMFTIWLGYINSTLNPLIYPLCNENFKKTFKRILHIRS
Description: as §1, §2

human 5HT7 receptors = target: T8, human 5HT7 receptors (Homo sapiens, UniProt P34969); assay: h5-HT7 receptor radioligand binding ([3H]5-CT); settings: pKi reported on a scale of 1 through 5; read-out: 5HT7 (pKi) (converted)
T8 construct: expressed in transfected cells; host or cells: Chinese hamster ovary cells (membranes)
T8 sequence (P34969 whole entry): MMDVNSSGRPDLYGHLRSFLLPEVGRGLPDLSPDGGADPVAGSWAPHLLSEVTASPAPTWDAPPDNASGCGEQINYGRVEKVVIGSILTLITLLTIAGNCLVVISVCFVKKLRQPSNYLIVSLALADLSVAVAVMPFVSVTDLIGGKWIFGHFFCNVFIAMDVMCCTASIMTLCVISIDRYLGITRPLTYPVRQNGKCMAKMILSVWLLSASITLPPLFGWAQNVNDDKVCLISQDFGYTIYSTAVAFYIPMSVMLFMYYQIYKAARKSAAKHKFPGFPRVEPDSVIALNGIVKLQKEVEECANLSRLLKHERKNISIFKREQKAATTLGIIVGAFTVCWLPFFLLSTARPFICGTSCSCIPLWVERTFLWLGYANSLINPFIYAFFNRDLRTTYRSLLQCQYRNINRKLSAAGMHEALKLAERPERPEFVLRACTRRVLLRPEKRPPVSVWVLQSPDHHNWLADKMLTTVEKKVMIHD
Description: as §1, §2

human M1 receptors = target: T9, human M1 receptors (Homo sapiens, UniProt P11229); assay: hM1 receptor radioligand binding ([3H]NMS); settings: pKi reported on a scale of 1 through 5
T9 construct: expressed in transfected cells; host or cells: Chinese hamster ovary cells (membranes)
T9 sequence (P11229 1-460): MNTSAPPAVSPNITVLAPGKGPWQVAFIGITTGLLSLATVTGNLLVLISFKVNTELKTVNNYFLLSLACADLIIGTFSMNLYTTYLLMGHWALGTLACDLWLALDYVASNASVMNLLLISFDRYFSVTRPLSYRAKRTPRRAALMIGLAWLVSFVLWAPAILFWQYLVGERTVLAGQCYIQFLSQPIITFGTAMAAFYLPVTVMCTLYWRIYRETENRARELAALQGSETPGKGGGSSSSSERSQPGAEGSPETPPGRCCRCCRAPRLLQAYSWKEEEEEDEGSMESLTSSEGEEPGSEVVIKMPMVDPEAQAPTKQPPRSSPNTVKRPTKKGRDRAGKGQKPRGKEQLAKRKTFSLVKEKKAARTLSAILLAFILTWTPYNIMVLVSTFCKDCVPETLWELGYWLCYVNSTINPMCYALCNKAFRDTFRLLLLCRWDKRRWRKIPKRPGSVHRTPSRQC
Description: as §1, §2

T1 sequence (P14842 whole entry): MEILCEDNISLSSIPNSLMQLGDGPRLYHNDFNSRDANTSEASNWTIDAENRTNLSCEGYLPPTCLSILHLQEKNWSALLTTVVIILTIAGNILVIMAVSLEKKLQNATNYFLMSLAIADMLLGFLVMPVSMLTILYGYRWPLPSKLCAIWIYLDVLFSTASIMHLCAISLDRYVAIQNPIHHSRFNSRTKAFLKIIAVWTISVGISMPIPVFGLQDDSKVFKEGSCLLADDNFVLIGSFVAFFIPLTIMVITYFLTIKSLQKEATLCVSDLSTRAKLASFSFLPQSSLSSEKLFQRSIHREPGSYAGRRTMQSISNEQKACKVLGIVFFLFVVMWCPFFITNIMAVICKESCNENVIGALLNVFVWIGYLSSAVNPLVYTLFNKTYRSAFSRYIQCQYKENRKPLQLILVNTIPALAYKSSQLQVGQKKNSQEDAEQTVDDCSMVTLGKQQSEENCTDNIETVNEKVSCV

Row | SMILES | Kb (5-HT2A receptor) | Ki [1] | Ki [2] | Ki (human 5HT1A receptors) | Ki (human 5HT2C receptors) | Ki (human M3 receptors) | Ki (human H1 receptors) | Ki (human 5HT7 receptors) | Ki (human M1 receptors)
1 | O=C(C[C@H]1CN(C2=Nc3cc(Cl)ccc3Oc3ccccc32)CCN1)NCC(F)F [FQ, (S,E)-2-(4-(8-chlorodibenzo[b,f][1,4]oxazepin-11-yl)piperazin-2-yl)-N-(2,2-difluoroethyl)acetamide] | 10 to 30.9 nM | 631 to 2450 nM | 631 to 2450 nM | 10 to 97.7 nM | 10 to 97.7 nM | > 10000 nM | 10 to 97.7 nM | 631 to 1550 nM | 5010 to 9770 nM
2 | O=C(C[C@H]1CN(C2=Nc3cc(Cl)ccc3Oc3ccccc32)CCN1)NCC(O)C(F)(F)F (stereo partly drawn) [GF, 2-((S)-4-((E)-8-chlorodibenzo[b,f][1,4]oxazepin-11-yl)piperazin-2-yl)-N-(3,3,3-trifluoro-2-hydroxypropyl)acetamide] | 10 to 30.9 nM | 631 to 2450 nM | 2510 to 9770 nM | 100 to 977 nM | 10 to 97.7 nM | > 10000 nM | 10 to 97.7 nM | 631 to 1550 nM | > 10000 nM
3 | O=C(C[C@H]1CN(C2=Nc3cc(Cl)ccc3Oc3ccccc32)CCN1)N1CCC[C@H]1C(F)(F)F [GH, 2-((S)-4-((E)-8-chlorodibenzo[b,f][1,4]oxazepin-11-yl)piperazin-2-yl)-1-((S)-2-(trifluoromethyl)pyrrolidin-1-yl)ethanone] | 31.6 to 97.7 nM | 2510 to 9770 nM | 631 to 2450 nM | 100 to 977 nM | 100 to 977 nM | 7940 to 9770 nM | 10 to 97.7 nM | 1580 to 3890 nM | ≤ 1230 nM
4 | COC(C)(C)CCOC(=O)C[C@H]1CN(C2=Nc3cc(Cl)ccc3Oc3ccccc32)CCN1 [EB, (S,E)-3-methoxy-3-methylbutyl 2-(4-(8-chlorodibenzo[b,f][1,4]oxazepin-11-yl)piperazin-2-yl)acetate] | 10 to 30.9 nM | 631 to 2450 nM | – | ≤ 9.77 nM | 10 to 97.7 nM | > 10000 nM | 10 to 97.7 nM | 1580 to 3890 nM | 5010 to 9770 nM
5 | C[C@H](O)C[C@H](C)OC(=O)C[C@H]1CN(C2=Nc3cc(Cl)ccc3Oc3ccccc32)CCN1 [EO, (2S,4S)-4-hydroxypentan-2-yl 2-((S)-4-((E)-8-chlorodibenzo[b,f][1,4]oxazepin-11-yl)piperazin-2-yl)acetate] | 10 to 30.9 nM | 631 to 2450 nM | – | ≤ 9.77 nM | 10 to 97.7 nM | > 10000 nM | 10 to 97.7 nM | 631 to 1550 nM | > 10000 nM
6 | O=C(C[C@H]1CN(C2=Nc3cc(Cl)ccc3Oc3ccccc32)CCN1)NCCOCCO [FN, (S,E)-2-(4-(8-chlorodibenzo[b,f][1,4]oxazepin-11-yl)piperazin-2-yl)-N-(2-(2-hydroxyethoxy)ethyl)acetamide] | 3.16 to 9.77 nM | 631 to 2450 nM | 631 to 2450 nM | 10 to 97.7 nM | 10 to 97.7 nM | > 10000 nM | 10 to 97.7 nM | 631 to 1550 nM | > 10000 nM
7 | C[C@H](CC(C)(C)O)OC(=O)C[C@H]1CN(C2=Nc3cc(Cl)ccc3Oc3ccccc32)CCN1 [Compound ED, (R)-4-hydroxy-4-methylpentan-2-yl 2-((S)-4-((E)-8-chlorodibenzo[b,f][1,4]oxazepin-11-yl)piperazin-2-yl)acetate] | 3.16 to 9.77 nM | 631 to 2450 nM | 631 to 2450 nM | 10 to 97.7 nM | < 9.77 nM | > 10000 nM | 10 to 97.7 nM | 631 to 1550 nM | 5010 to 9770 nM
8 | CC(C)(C)COC(=O)C[C@H]1CN(C2=Nc3cc(Cl)ccc3Oc3ccccc32)CCN1 [EA, (S,E)-neopentyl 2-(4-(8-chlorodibenzo[b,f][1,4]oxazepin-11-yl)piperazin-2-yl)acetate] | 10 to 30.9 nM | 2510 to 9770 nM | – | 10 to 97.7 nM | 10 to 97.7 nM | > 10000 nM | 100 to 977 nM | > 10000 nM | 1260 to 2450 nM
9 | CC(C)(O)CCOC(=O)C[C@H]1CN(C2=Nc3cc(Cl)ccc3Oc3ccccc32)CCN1 [EC, (S,E)-3-hydroxy-3-methylbutyl 2-(4-(8-chlorodibenzo[b,f][1,4]oxazepin-11-yl)piperazin-2-yl)acetate] | 10 to 30.9 nM | 631 to 2450 nM | – | 10 to 97.7 nM | 10 to 97.7 nM | > 10000 nM | 10 to 97.7 nM | 631 to 1550 nM | > 10000 nM
